In a melting point compilation (Tetko et al.; mined from patent text by program, amines drawn as free bases though some values may be those of a salt):

With CC(=O)CCNc1cc(C(=O)O)cc(S(N)(=O)=O)c1Oc1ccccc1 the melting point was 215 to 216 °C.
COc1cc(C(=O)c2ccc(OCc3ccccc3)cc2N)cc(OC)c1OC showed a melting point of 79 to 80 °C.
With CCC1Cc2c(C)c(OCC(=O)O)c(C)c(C)c2C1=O (configuration not stated) the melting point was 136 to 137 °C.
In the case of CC(C)(C)NS(=O)(=O)c1ccc2c(c1)C=C(C(=O)O)C(C(F)(F)F)O2 (configuration not stated), the melting point is reported as 229 to 234 °C.
CC(C(=O)O)c1ccc(N2CCC=N2)c(Cl)c1 (configuration not stated) showed a melting point of 94 to 102 °C.
In the case of CCCCC#Cc1nc(N)n2nc(-c3ccco3)nc2n1, the melting point is reported as 188 to 191 °C.
Work on O=c1c(-c2ccc[nH]2)coc2ccccc12 yielded a melting point of 134 to 135 °C.
COC(=O)[C@H](COC(C)(C)C)NC(=O)[C@@H](NC(=O)[C@H](Cc1ccccc1)NC(=O)[C@@H](NC(=O)OCc1ccccc1)[C@@H](C)OC(C)(C)C)[C@@H](C)OC(C)(C)C gave a melting point of 114 to 115 °C.
CCOC(=O)COc1c(OC2CCCCO2)cccc1[N+](=O)[O-] (configuration not stated) gave a melting point of 49 to 50 °C.
In the case of NC(=O)c1nc2cc(F)c([N+](=O)[O-])cc2[nH]c1=O, the melting point is reported as greater than 300 °C.
COc1ccc(C2Nc3cc(OC)c(OC)cc3C(C)=[N+]2[O-])cc1 (configuration not stated) gave a melting point of 161 to 163 °C.
Compound Fc1ccc(Cn2c(NC3CCN(CCc4ccccn4)CC3)nc3cncnc32)cc1 has a melting point of 172 °C.
CCOC(=O)Cn1c(=S)c2cc(C)ccc2n(Cc2ccc(Cl)c(Cl)c2)c1=O showed a melting point of 176 to 177 °C.
For C=CCOc1cc(N2C(=O)c3ccccc3C2=O)c(F)cc1Cl, the melting point was 148 to 150 °C.
Compound O=C(O)C1=Cc2cc(Cl)c(Oc3ccc4cc(Br)ccc4c3)cc2OC1C(F)(F)F (configuration not stated) has a melting point of 253 to 255 °C.
With O=C(O)c1cccc(CN2C(=O)C3(COc4cc5c(cc43)OCCO5)c3ccccc32)c1 (configuration not stated) the melting point was 254 to 258 °C.
Work on COC(=O)Cc1ccccc1[C@@H]1O[C@H]1c1ccccc1 (relative stereo) yielded a melting point of 118 to 119 °C.
O=C(Nc1cccc2cc(CO)cnc12)c1c(Cl)cccc1Cl gave a melting point of 224 to 226 °C.
COC(=O)c1ccc(-c2nc(-c3ccc(OC(F)(F)F)cc3)cs2)cc1 gave a melting point of 138 to 139 °C.
For CCc1ccc2c(c1)Cc1cc(C(C)=O)ccc1-2, the melting point was 120 to 122 °C.
In the case of CN1CCN(c2n[nH]c(-c3ccc(F)cc3)c2-c2ccncc2)CC1, the melting point is reported as 238 to 240 °C.
Work on Nc1ccc(Oc2ccc(Oc3ccc(S(=O)(=O)c4ccc(Oc5ccc(Oc6ccc(N)cc6)cc5)cc4)cc3)cc2)cc1 yielded a melting point of 212 to 214 °C.
With CCOC(OCC)c1nc2sc(C)c(C)n2c(=O)c1C the melting point was 84 to 85 °C.
COc1cccc2c1[nH]c(=O)n1c(=O)[nH]nc21 gave a melting point of 308 to 310 °C.
In the case of Cc1cc(C#N)cc(C)c1Oc1nc(Nc2ccc(C#N)cc2)ncc1N, the melting point is reported as greater than 300 °C.
CCCNC(=O)C1(CCCCCSc2nc3ccc(OCC)cc3s2)c2ccccc2-c2ccccc21 gave a melting point of 54 to 56 °C.
With COc1cc(N)c(Cl)cc1-c1noc(C2CCN(CC3CCCO3)CC2)n1 (configuration not stated) the melting point was 148 °C.
CCOC(=O)Cc1sc(Sc2cc(C(=O)OCC)nc3c(OC)cccc23)nc1C gave a melting point of 120 to 121 °C.
In the case of Cc1ccccc1C1CCN(C(=O)CCC(=O)c2ccc3c(c2)CCNCC3)CC1, the melting point is reported as 93 to 95 °C.
Compound CC(=O)C(C)(C)Nc1nc(N)nc(O)c1[N+](=O)[O-] has a melting point of 289 °C.
C=C(C(N)=O)N1CCC(c2ccc(OC(C)=O)c(OC)c2)C1c1ccccc1 (configuration not stated) showed a melting point of 113 to 116 °C.
Work on CCCCc1oc2ccccc2c1C(=O)c1ccc2c(Br)c(OC(Cc3ccccc3)C(=O)O)ccc2c1 (configuration not stated) yielded a melting point of 165 to 167 °C.
CCC=NNC(=O)c1cc(OC)cc(Oc2cccc(C(F)(F)F)c2)n1 showed a melting point of 154 to 155 °C.
In the case of CCCC(=O)Nc1cc(Sc2ccccc2)ccc1NC(=NC(=O)OC)NC(=O)OC, the melting point is reported as 180 °C.
C#C[C@@H](O)C1CCCCC1 showed a melting point of 56 to 58 °C.
COc1cc(-c2nnn[nH]2)ccc1Cc1cn(C)c2ccc(NC(=O)CC3CCCC3)cc12 showed a melting point of 242 to 243 °C.
CCCCn1cc(C(=O)OCC)c(NC(=O)Nc2ccccc2)n1 gave a melting point of 118 to 120 °C.
